According to patent EP0510620A1, “Indophenol substituted oligomaltosides as substrates for alpha-amylase” (BOEHRINGER MANNHEIM GMBH, priority 1991, dated 1992):
Marks after values point to notes of the source that are not given here.

Biological target: T1, Human-Pankreas-α-Amylase (HPA) (Homo sapiens, UniProt P04746)
T1 sequence (P04746 16-511): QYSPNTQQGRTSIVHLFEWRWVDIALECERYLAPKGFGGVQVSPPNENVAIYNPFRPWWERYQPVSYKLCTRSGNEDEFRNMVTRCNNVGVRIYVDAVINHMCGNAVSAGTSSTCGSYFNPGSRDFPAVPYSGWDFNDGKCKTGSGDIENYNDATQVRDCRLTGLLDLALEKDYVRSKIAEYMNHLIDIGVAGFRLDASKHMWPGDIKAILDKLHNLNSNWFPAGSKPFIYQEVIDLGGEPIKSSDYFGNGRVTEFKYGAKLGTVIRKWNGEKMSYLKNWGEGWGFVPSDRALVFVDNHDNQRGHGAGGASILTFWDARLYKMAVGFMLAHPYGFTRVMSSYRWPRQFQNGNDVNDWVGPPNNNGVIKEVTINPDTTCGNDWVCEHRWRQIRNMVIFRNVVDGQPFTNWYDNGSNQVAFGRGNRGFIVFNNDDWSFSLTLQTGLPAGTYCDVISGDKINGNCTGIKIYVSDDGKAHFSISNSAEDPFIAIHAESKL
Experiment: direct α-amylase determination with synthetic substrates, without auxiliary enzymes (absorbance change per minute)
Assay type: biochemical
Settings: for 400 mmol/l KSCN HPA relativer Wert [ΔE/min]: relative value (Beispiel 1 = 1); for 400 mMol/l KSCN HPA [ΔE/min]: activator 400 mMol/l KSCN, read at the wavelength given per substrate (645 or 578 nm)
Text: Es wurde mit den in der folgenden Tabelle und in Fig. 1 aufgeführten Substraten, die Amylaseaktivität von Human-Pankreas-α-Amylase (HPA) und Human-Speichel-α-Amylase (HSA) untersucht. Die folgenden Reagenzien wurden verwendet:
Substrat (wie in der Tabelle angegeben) 49,3 mMol/l
Reagenz 1 enthält gegebenenfalls noch Aktivator, wie in Tabelle angegeben, sowie - als Hemmstoffe für die Speichel-α-Amylase- von den Zellinien NCACC 84122003 (MAK I) und NCACC 84111301 (MAK II) produzierte Antikörper. Zur Durchführung der Bestimmung wird 1,00 ml Reagenz 1 mit 0,02 ml der Probe gemischt und auf 37°C temperiert. Anschließend wird 0,10 ml Reagenz 2 zugegeben, gemischt und nach 1,2 und 3 Minuten die Extinktion bei der jeweiligen Meßwellenlänge (s. Tabelle) abgelesen. Es wird der Mittelwert der Extinktionsdifferenz/Minute gebildet.
Die Endkonzentrationen im Testansatz betragen:
Als Probe wird Humanpankreas-Amylase (HPA) verwendet. Die Messung erfolgt bei 37°C bei der jeweils angegebenen Meßwellenlänge. Die Ergebnisse sind der Tabelle zu entnehmen. Tabelle
Verwendung der gemäß Beispiel 4 und Beispiel 5 hergestellten Substanzen als Substrate zur direkten α-Amylase-Bestimmung.
Es wird analog zu Beispiel 2 vorgegangen.

[1] = measured at pH 8,0, 595 or 573 nm
[2] = MES buffer pH 6,0, 37°C, substrate 4,44 mmol/l

SMILES	400 mmol/l KSCN HPA relativer Wert [ΔE/min] [1]	400 mMol/l KSCN HPA [ΔE/min] [2]	also measured
CC1=CC(=Nc2ccc(O[C@H]3O[C@H](CO)[C@@H](O[C@H]4O[C@H](CO)[C@@H](O[C@H]5O[C@H](CO)[C@@H](O)[C@H](O)[C@H]5O)[C@H](O)[C@H]4O)[C@H](O)[C@H]3O)c(Cl)c2)C=C(C)C1=O [Beispiel 5, 2'-Chlor-2,6-dimethyl-indophenyl-α-maltotriosid]	0,27* ΔE/min	–	–
CC1=CC(=Nc2ccc(O[C@H]3O[C@H](CO)[C@@H](O[C@H]4O[C@H](CO)[C@@H](O[C@H]5O[C@H](CO)[C@@H](O)[C@H](O)[C@H]5O)[C@H](O)[C@H]4O)[C@H](O)[C@H]3O)cc2)C=C(C)C1=O [2,6-Dimethyl-indophenylα-maltotriosid, reference compound]	–	–	HPA [ΔE/min] (with 150 mmol/l NaN₃ instead of KSCN, MES buffer pH 6,0, 37°C, substrate 4,44 mmol/l, 578 nm): 0* ΔE/min

Further lines, with some results ahead:

400 mmol/l KSCN HPA relativer Wert [ΔE/min] [1]	400 mMol/l KSCN HPA [ΔE/min] [2]	SMILES	also measured
–	0,063 ΔE/min	O=C1C(Cl)=CC(=Nc2ccc(O[C@H]3O[C@H](CO)[C@@H](O[C@H]4O[C@H](CO)[C@@H](O[C@H]5O[C@H](CO)[C@@H](O)[C@H](O)[C@H]5O)[C@H](O)[C@H]4O)[C@H](O)[C@H]3O)c(Cl)c2)C=C1Cl [Beispiel 1, 2',2,6-Trichlor-indophenyl-α-maltotriosid]	Spaltung durch α-Amylase als direktes Substrat (in words, in the absence of auxiliary enzymes): hervorragend durch α-Amylase in Abwesenheit von Hilfsenzymen spaltbar; 400 mmol/l KSCN HPA relativer Wert [ΔE/min] (analogous to Beispiel 2 (pH 6,0, 37°C), 645 nm): 1 ΔE/min
–	0 ΔE/min	O=C1C(Cl)=CC(=Nc2ccc(O[C@H]3O[C@H](CO)[C@@H](O[C@H]4O[C@H](CO)[C@@H](O[C@H]5O[C@H](CO)[C@@H](O)[C@H](O)[C@H]5O)[C@H](O)[C@H]4O)[C@H](O)[C@H]3O)cc2)C=C1Cl [2,6-Dichlor-indophenylα-maltotriosid, reference compound]	–
0,35* ΔE/min	–	CC1=CC(=Nc2ccc(O[C@H]3O[C@H](CO)[C@@H](O[C@H]4O[C@H](CO)[C@@H](O[C@H]5O[C@H](CO)[C@@H](O)[C@H](O)[C@H]5O)[C@H](O)[C@H]4O)[C@H](O)[C@H]3O)c(Cl)c2)C=CC1=O [Beispiel 4, 2'-Chlor-2-methyl-indophenyl-α-maltotriosid]	–
